According to US11944605B2, “Rapamycin analogs and uses thereof” (Janssen Pharmaceutica NV, priority 2018, dated 2024):
“Also recorded” adds a separate entry of the source.

Assays:
[1] = tested on: pS6K1 (p-p70 S6 Kinase (Thr389)) in MCF-7 cells; assay: AlphaLISA Ultra pS6K1 Assay; type: cell-based; details: Homo sapiens, 1.5 h; MCF7 cells, 90 min
Outline: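 AlphaLISA Ultra read-out (acceptor beads 2 h, then donor beads 2 h) on thawed lysates of MCF-7 cells. Cells had 20–24 h after seeding and a 2 h medium change, then 90 min of compound exposure at 0.5% final DMSO, with lysates stored at −80 °C.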

mTORC1 over mTORC2 = assay: mTORC1 selectivity over mTORC2 at 24 hrs (Western blot based pS6K1 and pAKT assay); type: cell-based; details: 24 hrs
[2] = tested on: mTORC1 pathway (pS6K1 T389) in PC3 cells; assay: Western blot, mTORC1 pathway (pS6K1) in PC3 cells; type: cell-based; details: PC3 cells, 24 hours
Procedure: (§1) Western Blot Based pS6K1 and pAKT Assay at 24 and 48 Hour Timepoints
(§2) 1. Seed six well plate with 500,000 PC3 cells per well and incubate for 20˜24 hour.
(§3) 2. Add compounds into the cell plate. Incubate for 24 to 48 hours.
(§4) 4. Plate is placed on ice and the media is removed via aspiration. The wells are washed with 1 mL of 1× PBS and then fully aspirated.
(§5) 5. 110 μL of 1% Triton Lysis Buffer is added and each well is scraped vigorously.
(§6) 6. Cell homogenates are transferred to 1.5 mL eppendorf tubes on ice and spun down at 4° C. for 10 minutes at 10,000 rpm.
(§7) 9. The membranes were washed 3× with TBS-T with a 5 minute incubation between each wash then incubated with secondary antibody (LiCor IRDye 800 Donkey Anti Rabbit) for at least 30 minutes.
(§8) 10. The membranes were washed 3× with TBS-T with a 5 minute incubation between each wash.
(§9) 11. The gels were then incubated for 5 minutes with PBS at room temperature then imaged using a Li-Cor.
(§10) The methods employed were substantially similar to those described above. Compounds were evaluated in PC3 cells, Jurkat cells, wild-type mouse embryotic fibroblast (MEF) cells, tuberous sclerosis 2 (TSC2) negative (TSC −/−) MEF cells, and tuberous sclerosis 2 (TSC2) positive (TSC +/+) MEF cells. Cells were incubated with compounds of the present invention for various time periods (e.g., 5 minutes, 15 minutes, 30 minutes, 90 minutes, 24 hours, or 48 hours), and evaluated according to known methodologies, such as those herein described.

[3] = tested on: mTORC2 pathway (Akt phosphorylation) in PC3 cells; assay: Western blot, mTORC2 pathway (pAkt) in PC3 cells; type: cell-based; details: 24 hours
Procedure: as §1, §2, §3, §4, §5, §6, §7, §8, §9, §10

[4] = tested on: 4E-BP1 phosphorylation in PC3 cells; assay: Western blot, 4E-BP1 phosphorylation in PC3 cells; type: cell-based; details: 24 hours
[5] = tested on: mTORC1 pathway in tuberous sclerosis 2 (TSC2) positive (TSC+/+) MEF cells; assay: Western blot, mTORC1 pathway in TSC+/+ MEF cells; type: cell-based, mouse; details: 24 hours
Procedure: as §10

[6] = tested on: mTORC2 (Akt phosphorylation) in TSC+/+ MEF cells; assay: Western blot, mTORC2 pathway (pAkt) in TSC+/+ MEF cells; type: cell-based, mouse; details: 24 hours
Procedure: as §10

## CO[C@@H]1C[C@H](C[C@@H](C)[C@@H]2CC(=O)[C@H](C)/C=C(\C)[C@@H](O)[C@@H](OC)C(=O)[C@H](C)C[C@H](C)/C=C/C=C/C=C(\C)C(OCCCCCO)C[C@@H]3CC[C@@H](C)[C@@](O)(O3)C(=O)C(=O)N3CCCC[C@H]3C(=O)O2)CC[C@H]1O (stereo partly drawn) [I-113, (21E,23E,25E,26E,33R,34S,35R,36R,38S,40S,43S,44R,45R,54R)-44, 54-dihydroxy-43-[(1R)-2-[(1S,3R,4R)-4-hydroxy-3-methoxy-cyclohexyl]-1-methyl-ethyl]-42-(5-hydroxypentoxy)-45-methoxy-33, 34,35,36,46,47-hexamethyl-65,66-dioxa-55-azatricyclohexatriaconta-21, 23,25(46),26(47)-tetraene-48,49,50,51,52-pentone]
[1]
  IC50: 0.1 to 1 nM
mTORC1 over mTORC2
  mTORC1 selective @ 24 hrs: YES
[2]
  inhibition of the mTORC1 pathway: strong inhibition
[3]
  inhibition of mTORC2 (Akt phosphorylation): do not inhibit
[4]
  inhibition of 4E-BP1 phosphorylation: no inhibition

## CO[C@@H]1C[C@H](C[C@@H](C)[C@@H]2CC(=O)[C@H](C)/C=C(\C)[C@@H](O)[C@@H](OC)C(=O)[C@H](C)C[C@H](C)/C=C/C=C/C=C(\C)C(OC[C@H]3CO[C@@H](CO)CO3)C[C@@H]3CC[C@@H](C)[C@@](O)(O3)C(=O)C(=O)N3CCCC[C@H]3C(=O)O2)CC[C@H]1O (stereo partly drawn) [I-118, (23E,25E,27E,28E,32R,33S,34R,35R,36S,39S,41S,45R,46R,55R)-45, 55-dihydroxy-41-[(1R)-2-[(1S,2R,3R)-3-hydroxy-2-methoxy-cyclohexyl]-1-methyl-ethyl]-40-[[(25, 5S)-5-(hydroxymethyl)-1,4-dioxan-2-yl]methoxy]-46-methoxy-32,33,34,35,47,48-hexamethyl-68, 69-dioxa-56-azatricyclohexatriaconta-23,25,27(47),28(48)-tetraene-49,50,51,52,53-pentone]
[1]
  IC50: 1 to 10 nM
mTORC1 over mTORC2
  mTORC1 selective @ 24 hrs: YES
[2]
  inhibition of the mTORC1 pathway: moderate concentration dependent inhibition; also recorded: strong inhibition
[3]
  inhibition of mTORC2 (Akt phosphorylation): do not inhibit
[4]
  inhibition of 4E-BP1 phosphorylation: no inhibition

## CO[C@@H]1C[C@H](C[C@@H](C)[C@@H]2CC(=O)[C@H](C)/C=C(\C)[C@@H](O)[C@@H](OC)C(=O)[C@H](C)C[C@H](C)/C=C/C=C/C=C(\C)C(OCCOCCOCCOCCOCCOCCOCCOCCOCCO)C[C@@H]3CC[C@@H](C)[C@@](O)(O3)C(=O)C(=O)N3CCCC[C@H]3C(=O)O2)CC[C@H]1O (stereo partly drawn) [I-97, (21E,23E,25E,26E,46R,47S,48R,49R,51S,53S,56S,57R,58R,67R)-57, 67-dihydroxy-55-[2-[2-[2-[2-[2-[2-[2-[2-(2-hydroxyethoxy)ethoxy]ethoxy]ethoxy]ethoxy]ethoxy]ethoxy]ethoxy]ethoxy]-56-[(1R)-2-[(1S,3R,4R)-4-hydroxy-3-methoxy-cyclohexyl]-1-methyl-ethyl]-58-methoxy-46, 47,48,49,59,60-hexamethyl-78,79-dioxa-68-azatricyclohexatriaconta-21, 23,25(59),26(60)-tetraene-61,62,63,64,65-pentone]
[1]
  IC50: 1 to 10 nM
mTORC1 over mTORC2
  mTORC1 selective @ 24 hrs: YES
[3]
  inhibition of mTORC2 (Akt phosphorylation): do not inhibit
[5]
  inhibition of the mTORC1 pathway: modest concentration dependent inhibition
[6]
  inhibition of mTORC2 (Akt phosphorylation): do not inhibit

## CO[C@@H]1C[C@H](C[C@@H](C)[C@@H]2CC(=O)[C@H](C)/C=C(\C)[C@@H](O)[C@@H](OC)C(=O)[C@H](C)C[C@H](C)/C=C/C=C/C=C(\C)C(OCCS(=O)(=O)CCS(=O)(=O)CCO)C[C@@H]3CC[C@@H](C)[C@@](O)(O3)C(=O)C(=O)N3CCCC[C@H]3C(=O)O2)CC[C@H]1O (stereo partly drawn) [I-102, (21E,23E,25E,26E,34R,35S,36R,37R,39R,41S,44S,45R,46R,55S)-45, 55-dihydroxy-43-[2-[2-(2-hydroxyethylsulfonyl)ethylsulfonyl]ethoxy]-44-[(1S)-2-[(1S,3R, 4R)-4-hydroxy-3-methoxy-cyclohexyl]-1-methyl-ethyl]-46-methoxy-34,35,36,37,47,48-hexamethyl-70, 71-dioxa-56-azatricyclohexatriaconta-21,23,25(47),26(48)-tetraene-49,50,51,52,53-pentone]
[1]
  IC50: 10 to 100 nM
mTORC1 over mTORC2
  mTORC1 selective @ 24 hrs: YES
[2]
  inhibition of the mTORC1 pathway: strong inhibition
[3]
  inhibition of mTORC2 (Akt phosphorylation): do not inhibit
[4]
  inhibition of 4E-BP1 phosphorylation: no inhibition

## CO[C@@H]1C[C@H](C[C@@H](C)[C@@H]2CC(=O)[C@H](C)/C=C(\C)[C@@H](O)[C@@H](OC)C(=O)[C@H](C)C[C@H](C)/C=C/C=C/C=C(\C)C(OCP(=O)(CO)CO)C[C@@H]3CC[C@@H](C)[C@@](O)(O3)C(=O)C(=O)N3CCCC[C@H]3C(=O)O2)CC[C@H]1O (stereo partly drawn) [I-106, (21E,23E,25E,26E,31R,32S,33R,34R,36S,38S,41S,42R,43R,52R)-40-[bis(hydroxymethyl)phosphorylmethoxy]-42,52-dihydroxy-4I-[(1R)-2-[(1S,3R,4R)-4-hydroxy-3-methoxy-cyclohexyl]-1-methyl-ethyl]-43-methoxy-31, 32,33,34,44,45-hexamethyl-65,66-dioxa-53-azatricyclohexatriaconta-21, 23,25(44),26(45)-tetraene-46,47,48,49,50-pentone]
[1]
  IC50: 0.1 to 1 nM
mTORC1 over mTORC2
  mTORC1 selective @ 24 hrs: YES
[2]
  inhibition of the mTORC1 pathway: strong inhibition
[3]
  inhibition of mTORC2 (Akt phosphorylation): do not inhibit
[4]
  inhibition of 4E-BP1 phosphorylation: no inhibition

## CO[C@@H]1C[C@H](C[C@@H](C)[C@@H]2CC(=O)[C@H](C)/C=C(\C)[C@@H](O)[C@@H](OC)C(=O)[C@H](C)C[C@H](C)/C=C/C=C/C=C(\C)[C@@H](OCCOCCOCCO)C[C@@H]3CC[C@@H](C)[C@@](O)(O3)C(=O)C(=O)N3CCCC[C@H]3C(=O)O2)CC[C@H]1OCCO [I-110, (21E,23E,25E,26E,36R,37S,38R,39R,41S,43S,45S,46S,47R,48R,57R)-47, 57-dihydroxy-45-[2-[2-(2-hydroxyethoxy)ethoxy]ethoxy]-46-[(1R)-2-[(1S,3R, 4R)-4-(2-hydroxyethoxy)-3-methoxy-cyclohexyl]-1-methyl-ethyl]-48-methoxy-36,37,38,39,49,50-hexamethyl-68, 69-dioxa-58-azatricyclohexatriaconta-21,23,25(49),26(50)-tetraene-51, 52,53,54,55-pentone]
[1]
  IC50: 0.1 to 1 nM
mTORC1 over mTORC2
  mTORC1 selective @ 24 hrs: YES
[5]
  inhibition of the mTORC1 pathway: moderate concentration dependent inhibition
[6]
  inhibition of mTORC2 (Akt phosphorylation): do not inhibit
